Measured values taken from patent US4632922A, “Oxomorpholinyl dimer and rescue of anthracycline and mitomycin C damage” (The United States of America as represented by the …, priority 1985, dated 1986).

Assay: Stability of DHM3 in water upon exposure to air
Format: physicochemical
Description: Oxazinone 2 (6.0 g, 0.019 mol) was dissolved in 500 ml of 2-propanol (Fisher). The solution was irradiated with a 450 W mercury immersion lamp through a Pyrex filter. Throughout the reacion the photochemical apparatus was immersed in a bath kept at 0° C. and nitrogen was bubbled through the solution. The disappearance of the oxazinone chromophore was monitored by UV spectroscopy. After 24 h, when the UV maximum at 323 nm had disappeared, the irradiation was stopped, and the solvent quickly rotary evaporated without delay at ambient temperature (20°-28° C.) first at 15-20 Torr, then at 1 Torr. The residue was dissolved in 70 ml of chloroform and the solution was stored in a freezer at about -18° C. for 6 days. The resulting pricipitate was collected by suction filtration, washed thoroughly with cold chloroform (≈10° C.) and dried under vaccuum to give 2.9 g (48%) of a white powder, mp 121°-124° C. An additional crop of crystals (0.64 g) was obtained from the mother liquors after two more weeks in the freezer. […] Minor peaks in the spectrum were present in areas compatible with the presence of other stereoisomers. Infrared and analytical data are as follows: IR (KBr) 3160, 2900, 1715, 1455, 1285, 1220, 1040, 770, 715 cm^-1; anal. calcd. for C14 H24 N2 O6 : C, 53.15; H, 7.65; N, 8.85. Found: C, 53.00; H, 7.70; N, 8.84. […]

**Q.** With `CC1(CO)COC(=O)C(C)(C2(C)NC(C)(CO)COC2=O)N1` (stereo not shown) [DHM3, bi(3,5-dimethyl-5-hydroxymethyl-2-oxomorpholin-3-yl)] as the compound, how does the “stability to air in water” value read?
**A.** quickly gives rise to an absorption maximum at 310 nm, characteristic of the oxazinone
